Tests used:
[1] = system: Mycobacterium tuberculosis Erdman (autoluminescent); test: GRinf, maximum normalised growth rate inhibition (three-drug combination) (unitless (-1 to 1)); higher = less effect (negative = killing)
Method: (§1)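 DiaMOND equipotent three-drug combination dose responses (10 doses, 1.5- or 2-fold spacing, centred on IC90) against autoluminescent M. tuberculosis Erdman in 8 in vitro models. Read-out is OD600, or luminescence for the intracellular and dormancy models, normalised to untreated wells. Hill-fit Einf, AUC25 and GRinf are potency metrics; FIC50 and FIC90 are total Loewe fractional inhibitory concentrations as log2 (negative = synergy).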

[2] = system: Mycobacterium tuberculosis Erdman (autoluminescent); test: AUC25, normalised area under dose response up to IC25 (three-drug combination) (fraction (0-1)); higher = more potent at low dose
Method: as §1

[3] = system: Mycobacterium tuberculosis Erdman (autoluminescent); test: total FIC90 (Loewe) at 90% inhibition, three-drug combination (log2); higher = more antagonistic
Method: as §1

[4] = system: Mycobacterium tuberculosis Erdman (autoluminescent); test: total FIC50 (Loewe) at 50% inhibition, three-drug combination (log2); higher = more antagonistic
Method: as §1

[5] = system: Mycobacterium tuberculosis Erdman (autoluminescent); test: Einf, fitted maximum growth inhibition of three-drug combination (fraction); higher = stronger maximal inhibition
Method: as §1

CC(C)/N=c1\cc2n(-c3ccc(Cl)cc3)c3ccccc3nc-2cc1Nc1ccc(Cl)cc1 [clofazimine] + NNC(=O)c1ccncc1 [isoniazid] + NC(=O)c1cnccn1 [pyrazinamide]
Conditions	AUC25, [2]	Einf, [5]	GRinf, [1]	total FIC50, [4]	total FIC90, [3]
in vitro model: acidic pH 5.7, time point: constant (~7 days, model-specific)	0.105	0.819	-0.294	0.25	–
in vitro model: acidic pH 5.7, time point: terminal (~4-5 doublings, model-specific)	0.0972	0.977	-0.35	-0.0265	-0.409
in vitro model: intracellular J774, time point: constant = terminal	–	0.964	-0.705	–	0.267

Conditions	AUC25, [2]	Einf, [5]	GRinf, [1]	total FIC50, [4]	total FIC90, [3]
in vitro model: butyrate, time point: constant (~7 days, model-specific)	0.112	0.953	-0.112	-0.201	0.915
in vitro model: butyrate, time point: terminal (~4-5 doublings, model-specific)	0.0804	0.968	-0.0686	-0.0738	0.168
in vitro model: cholesterol 0.05 mM, time point: constant (~7 days, model-specific)	0.131	0.74	-0.217	–	–
in vitro model: cholesterol 0.05 mM, time point: terminal (~4-5 doublings, model-specific)	0.132	0.924	-0.252	0.486	–
in vitro model: cholesterol-high 0.2 mM, time point: constant (~7 days, model-specific)	0.0931	0.938	-0.335	0.341	–
in vitro model: cholesterol-high 0.2 mM, time point: terminal (~4-5 doublings, model-specific)	0.0853	0.997	-0.517	0.634	0.384
in vitro model: dormancy (butyrate + nitrate, low O2), time point: constant (~7 days, model-specific)	0.0828	0.88	0.259	-0.675	-0.607
in vitro model: dormancy (butyrate + nitrate, low O2), time point: terminal (~4-5 doublings, model-specific)	0.0727	0.986	-0.174	-0.286	0.161
in vitro model: standard 7H9 glycerol, time point: constant = terminal	0.114	0.942	-0.135	0.447	–
in vitro model: valerate, time point: constant (~7 days, model-specific)	0.119	0.86	0.022	-0.0616	–
in vitro model: valerate, time point: terminal (~4-5 doublings, model-specific)	0.0674	0.933	0.0539	0.187	0.474

CC(C)/N=c1\cc2n(-c3ccc(Cl)cc3)c3ccccc3nc-2cc1Nc1ccc(Cl)cc1 [clofazimine] + NNC(=O)c1ccncc1 [isoniazid] + O=[N+]([O-])c1cn2c(n1)OC[C@@H](OCc1ccc(OC(F)(F)F)cc1)C2 [pretomanid]
Conditions	AUC25, [2]	Einf, [5]	GRinf, [1]	total FIC50, [4]	total FIC90, [3]
in vitro model: acidic pH 5.7, time point: constant (~7 days, model-specific)	0.0904	0.772	-0.0866	-0.103	–
in vitro model: acidic pH 5.7, time point: terminal (~4-5 doublings, model-specific)	0.0916	0.963	-0.274	0.278	0.567
in vitro model: intracellular J774, time point: constant = terminal	–	0.976	-0.35	–	0.28

Conditions	AUC25, [2]	Einf, [5]	GRinf, [1]	total FIC50, [4]	total FIC90, [3]
in vitro model: butyrate, time point: constant (~7 days, model-specific)	0.106	0.965	-0.205	0.629	1.4
in vitro model: butyrate, time point: terminal (~4-5 doublings, model-specific)	0.0874	0.989	-0.14	0.581	1.02
in vitro model: cholesterol 0.05 mM, time point: constant (~7 days, model-specific)	0.119	0.713	-0.0879	0.824	–
in vitro model: cholesterol 0.05 mM, time point: terminal (~4-5 doublings, model-specific)	0.0944	0.912	-0.156	7.01	0.912
in vitro model: cholesterol-high 0.2 mM, time point: constant (~7 days, model-specific)	0.102	0.971	-0.31	0.301	–
in vitro model: cholesterol-high 0.2 mM, time point: terminal (~4-5 doublings, model-specific)	0.0894	1	-0.709	0.306	0.374
in vitro model: dormancy (butyrate + nitrate, low O2), time point: constant (~7 days, model-specific)	0.0958	0.93	0.217	-0.236	-0.894
in vitro model: dormancy (butyrate + nitrate, low O2), time point: terminal (~4-5 doublings, model-specific)	0.0744	0.987	-0.177	-0.374	-0.0746
in vitro model: standard 7H9 glycerol, time point: constant = terminal	0.116	0.949	-0.229	0.139	0.594
in vitro model: valerate, time point: constant (~7 days, model-specific)	0.15	0.918	-0.199	0.901	2.23
in vitro model: valerate, time point: terminal (~4-5 doublings, model-specific)	0.0945	0.942	-0.0153	0.511	2.01

CC(C)/N=c1\cc2n(-c3ccc(Cl)cc3)c3ccccc3nc-2cc1Nc1ccc(Cl)cc1 [clofazimine] + O=[N+]([O-])c1cn2c(n1)OC[C@@H](OCc1ccc(OC(F)(F)F)cc1)C2 [pretomanid] + CO[C@H]1/C=C/O[C@@]2(C)Oc3c(C)c(O)c4c(O)c(c(/C=N/N5CCN(C6CCCC6)CC5)c(O)c4c3C2=O)NC(=O)/C(C)=C\C=C\[C@H](C)[C@H](O)[C@@H](C)[C@@H](O)[C@@H](C)[C@H](OC(C)=O)[C@@H]1C [rifapentine]
Conditions	AUC25, [2]	Einf, [5]	GRinf, [1]	total FIC50, [4]	total FIC90, [3]
in vitro model: acidic pH 5.7, time point: constant (~7 days, model-specific)	0.103	0.899	-0.186	0.105	–
in vitro model: acidic pH 5.7, time point: terminal (~4-5 doublings, model-specific)	0.0882	0.993	-0.236	0.264	0.423
in vitro model: intracellular J774, time point: constant = terminal	–	0.989	-0.655	–	-0.198

Conditions	AUC25, [2]	Einf, [5]	GRinf, [1]	total FIC50, [4]	total FIC90, [3]
in vitro model: butyrate, time point: constant (~7 days, model-specific)	0.108	0.944	-0.17	0.542	0.896
in vitro model: butyrate, time point: terminal (~4-5 doublings, model-specific)	0.0902	0.978	-0.146	0.502	0.795
in vitro model: cholesterol 0.05 mM, time point: constant (~7 days, model-specific)	0.125	0.719	-0.154	1.34	–
in vitro model: cholesterol 0.05 mM, time point: terminal (~4-5 doublings, model-specific)	0.1	0.913	-0.114	1.34	1.38
in vitro model: cholesterol-high 0.2 mM, time point: constant (~7 days, model-specific)	0.101	0.93	-0.434	1.29	2.04
in vitro model: cholesterol-high 0.2 mM, time point: terminal (~4-5 doublings, model-specific)	0.104	1	-0.886	1.49	1.76
in vitro model: dormancy (butyrate + nitrate, low O2), time point: constant (~7 days, model-specific)	0.0611	0.948	-0.0911	0.0191	-1.71
in vitro model: dormancy (butyrate + nitrate, low O2), time point: terminal (~4-5 doublings, model-specific)	0.0501	0.997	-0.374	-0.0775	-0.279
in vitro model: standard 7H9 glycerol, time point: constant = terminal	0.12	0.954	-0.0887	-0.289	1.7
in vitro model: valerate, time point: constant (~7 days, model-specific)	0.155	0.893	-0.158	1.22	–
in vitro model: valerate, time point: terminal (~4-5 doublings, model-specific)	0.106	0.953	0.0119	0.552	1.7

From the supplement of paper PMC8617591
